“Also recorded” adds a separate entry of the source. Read-outs that look alike come from different tables or passages of the source.
How the values were obtained:
[1] = system: Akt; assay: Stretch-induced Akt phosphorylation in retinal pericytes; format: cell-based, bovine; details: cyclic stretch
Method: The mechanism of stretch-induced Akt phosphorylation was evaluated using two PI3 kinase inhibitors (LY294002 and wortmannin), the MEK1 inhibitor PD98059 and the tyrosine kinase inhibitor genistein.
(§1) Mechanical Stretch: For pericyte experiments, cells were plated on 6-well flexiblebottom culture plates coated with collagen (Flexcell Corp.,Mckeepsport, Pa.). After 2 days, media were changed to DMEM containing 1% calf serum and the cells incubated overnight. Cells were then subjected to uniform radial and circumferential strain in 5% CO2 at 37° C. using a computer-controlled, vacuum stretch apparatus (Flexcer Cell Strain Unit; Flexcel Corp.). A physiologic stretch frequency of 60 cpm and 3-20% prolongation of elastomer bottomed plates were used as previously described.
ERK1/2 and Akt phosphorylation: Cells were washed with cold PBS and lysed in 1X Laemmli buffer containing protease inhibitors as described above. Cell lysates were heated to 95 °C for 2 min and equal volume of lysates were subjected to SDS-PAGE under reducing conditions. The blots were incubated with anti-phosphospecific ERK1(p44)/ERK2(p42) or anti-phosphospecific Akt antibody (New England Biolabs, Beverly, Ma.). Lane loading differences were normalized by reblotting with non-phosphorylation-specific (total) anti ERK1 antibody (Santa Cruz Biological) or anti-total Akt antibody(New England Biolabs).

[2] = system: VEGF mRNA; assay: Stretch-induced VEGF mRNA expression in bovine retinal pericytes (Northern blot); format: cell-based; details: BRPC; for inhibition of stretch-induced VEGF mRNA expression: 9%/60 cpm cyclic stretch 3 hours, genistein 20 uM, adenovirus 1×10^8 pfu/ml; for inhibition of stretch-induced VEGF mRNA expression / effect on stretch-induced VEGF mRNA expression: LY294002 50 uM, wortmannin 100 nM; for effect on stretch-induced VEGF mRNA expression: 9%/60 cpm cyclic stretch, PD98059 20 uM, GF109203X 5 uM; for effect on basal VEGF mRNA expression: unstretched
Method: To determine the mechanism by which stretch increased VEGF mRNA expression, inhibitors of MEK1 (PD98059, 20 uM), classical/novel PKC isoforms (GF109203X, 5 uM), tyrosine phosphorylation (genistein, 20 uM) and PI3 kinase (wortmannin, 100 nM and LY294002, 50 uM) were evaluated. In all experiments 9%/60 cpm cyclic stretch for 3 hours induced VEGF mRNA expression. Inhibition of ERK1/2 utilizing PD98059 had little effect on either basal or stretch-induce expression of VEGF. […] LY294002 and wortmannin inhibited stretched induced VEGF mRNA expression by 85±20% (p=0.039) and 96±25% (p=0.035), respectively.
Cell culture: Primary cultures of bovine retinal pericytes (BRPC) were isolated by homogenization and a series of filtration steps. BRPC were cultured in DMEM containing 5.5 mM glucose and 20% FBS. The cells were maintained in 5% CO2 at 37 °C and media were changed every three days. Cells were characterized for their homogeneity by immunoreactivity with monoclonal antibody 3G5. Cells were plated at a density of 2×10^4 cells/cm2 and passaged when confluent. The media were changed every three days and only cells from passages 2-5 were used for experiments.
as §1
RNA Extraction: RNA was extracted using the guanidinium thiocynate method. RNA purity was determined by the ratio of optical density (OD) measured at 260 & 280 nm and RNA quantity was estimated using OD measured at 260 nm.
Northern Blot Analysis: Northern blot analysis was performed on 15 μg total RNA per lane after 1% agarose-2M formaldehyde gel electrophoresis and subsequent capillary transfer to Biodyne nylon membranes (Pall BioSupport, East Hills, N.Y.). Membranes underwent ultraviolet crosslinking using a UV Stratalinker 2400 (STRATAGENE, La Jolla, Calif.). Radioactive probes were generated using Amersham Megaprime labeling kits (Buckinghamshire, England) and 32PdCTP (NEN Life Science Products Inc., Boston, Mass.). Blots were pre-hybridized, hybridized and washed 4 times in 0.5×SSC, 5% SDS at 65 °C for 1 hour in a rotating hybridization oven (Robbins Scientific Corporation, Sunnyvale, Calif.). All signals were analyzed using a computing PhosphorImager with ImageQuant software analysis (Molecular Dynamics, Sunnyvale, Calif.). The signal for each sample was normalized by re-probing the same blot using 36B4 cDNA control probe.

[3] = system: KDR mRNA; assay: Cyclic stretch-induced KDR mRNA expression; format: cell-based, bovine
Method: (§2) Cyclic stretch induces KDR mRNA at least 2.2 fold. […] In contrast, angiotensin II which also induces KDR mRNA is blocked from doing so by candesartan cilexetil, an AT1 receptor antagonist. Thus, unlike Angiotensin II induced KDR expression, stretch induced KDR expression is not mediated through the AT1 receptor pathway.
(§3) Cells were seeded on 6-well flexible-bottom plates coated with bovine fibronectin and subjected to uniform radial and circumferential strain using a computercontrolled, vacuum stretch apparatus (Flexcer Cell Strain Unit; Flexcel Corp.) with cardiac profile at a frequency of 60 cpm.

[4] = system: KDR mRNA; assay: Angiotensin II-induced KDR mRNA expression; format: cell-based
Description: as §2

[5] = system: retinal VEGF mRNA; assay: Retinal VEGF mRNA in spontaneously hypertensive rats (multiplex RT-PCR); format: in vivo, rat; details: SHR rats; captopril 100 mg/kg/day or candesartan cilexetil 10 mg/kg/day in drinking water for one week
Method: (§4) 12 week-old male spontaneously hypertensive rats (SHR) and weight-matched Wistar-Kyoto (WKY) control animals were used. Systolic and diastolic blood pressures were measured from each animal by tail cuff. Animals were treated with or without 100 mg/kg/day captopril or 10 mg/kg/day candesartan cilexetil for one week. Drugs were administered in drinking water. Blood measurements were repeated after therapy and the retinas individually isolated.
(§5) RNA was isolated from individual retinas and RNA reverse transcribed at 42° C. using random hexamer primers. PCR amplification was carried out using a 55° C. annealing temperature. The samples were separated on a 6% nondenaturing polyacrylamide gel. The gel was dried and analyzed by PhosphorImager. Signal intensity was normalized using rat ribosomal phosphoprotein P0 (RRRPP0) as an internal standard.

[6] = Blood pressure in spontaneously hypertensive rats (tail cuff); format: in vivo, rat; details: SHR rats, treatment for one week in drinking water
Method: as §4

[7] = system: retinal KDR mRNA; assay: Retinal KDR mRNA in spontaneously hypertensive rats (multiplex RT-PCR); format: in vivo, rat; details: SHR rats, captopril 100 mg/kg/day or candesartan cilexetil 10 mg/kg/day in drinking water for one week
Method: To determine the effect of hypertension on KDR levels in vivo, KDR mRNA was quantified in hypertensive rats (SHR) as well as weight-matched controls (WKY). […] Captopril is an angiotensin converting enzyme (ACE) inhibitor. Candesartan Cilexetil is an angiotensin II antagonist.
as §4, §5

[8] = system: ERK1/2; assay: Stretch-induced ERK1/2 phosphorylation in retinal pericytes; format: cell-based, bovine
Method: To determine what pathways were activated in retinal pericytes exposed to cardiac profile cyclic stretch, ERK phosphorylation, PI3 kinase activity and Akt phosphorylation were evaluated. Stretch induced a rapid increase in ERK 1/ 2 phosphorylation which was initially evident after 2 minutes, maximal at 5 min (ERK1=20-fold; ERK2=8.9-fold increase) and still maintained above baseline even after 60 min (ERK1=6.3-fold; ERK2=4.5-fold).
Further confirmation that stretch-induced ERK1/2 activation was not involved in mediating stretch-induced VEGF expression was obtained by assaying ERK1/2 phosphorylation after exposure to the inhibitors described herein. The inhibitor response for stretch-induced ERK1/2 phosphorylation was opposite that observed for stretch-induced VEGF expression. Stretch-induced ERK1/2 phosphorylation was reduced by inhibition of MEK1 (85+10.8%, 88+7.1%, p<0.05) or classical/novel PKC (83+23%, 84+7.1% p<0.05) but relatively unaffected by inhibition of PI3 kinase or tyrosine phosphorylation. Adenovirus infection with dominant negative ERK, wild type active ERK63 or b-galactosidase control had no effect on stretch-induced VEGF expression.
Mechanical Stretch: For pericyte experiments, cells were plated on 6-well flexiblebottom culture plates coated with collagen (Flexcell Corp.,Mckeepsport, Pa.). […]

[9] = system: bovine retinal endothelial cells (BRECs); assay: 3H-thymidine incorporation (mitogenesis) under cyclic stretch; format: cell-based
Method: Cells can respond to VEGF by proliferation. A measure of proliferation is the rate of cell progression through mitosis. Cells transiting S phase will incorporate ^3H-thymidine.
To determine if the effects of cyclic stretching on mitogenesis are mediated by VEGF signaling, cells were stretched while treated with a VEGF neutralizing antibody.
as §3
Confluent cells were placed in 1% calf serum for 24 hours and then subjected to 9%/60 cpm cyclic stretch for 24 hrs. During the last 12 hrs, VEGF (25 ng/ml final). VEGF neutralizing antibody (10 μg/ml was added 30 minutes prior to stretch onset. ^3H-thymidine (0.5 μCi/ml)was added during the last 6 hours.

## O=c1cc(N2CCOCC2)oc2c(-c3ccccc3)cccc12 [LY294002]
[1]
  inhibition of stretch-induced Akt phosphorylation: 119+14%
[2]
  inhibition of stretch-induced VEGF mRNA expression: 85±20%

## CCOc1nc2cccc(C(=O)OC(C)OC(=O)OC3CCCCC3)c2n1Cc1ccc(-c2ccccc2-c2nn[nH]n2)cc1 (stereo not drawn) [candesartan cilexetil]
[3]
  effect on cyclic stretch-induced KDR mRNA expression: not significantly affected
[3]; listed as candesartan
  effect on cyclic stretch-induced KDR mRNA expression: not inhibited
[4]; angiotensin II stimulation
  effect on angiotensin II-induced KDR mRNA: blocked
[5]
  effect on hypertension-induced elevation of retinal VEGF mRNA: blocked
[6]
  effect on blood pressure: normalization
[7]
  effect on hypertension-induced elevation of retinal KDR mRNA: blocked
[7]; listed as candesartan
  effect on hypertension-induced elevation of retinal KDR mRNA: returned to baseline levels

## COc1cccc(-c2cc(=O)c3ccccc3o2)c1N [PD98059]
[1]
  effect on stretch-induced Akt phosphorylation: little effect
[2]
  effect on stretch-induced VEGF mRNA expression: little effect; also recorded: not suppressed
  effect on basal VEGF mRNA expression: little effect

## CN(C)CCCn1cc(C2=C(c3c[nH]c4ccccc34)C(=O)NC2=O)c2ccccc21 [GF109203X]
[8]
  effect on stretch-induced ERK1/2 phosphorylation: inhibition
[2]
  effect on stretch-induced VEGF mRNA expression: did not alter

## VEGF
[9]; BREC, cyclic stretch plus VEGF
  increase of VEGF-stimulated thymidine uptake by cyclic stretch: 2.6+/−0.2 fold
[9]; cyclic stretching in combination with exogenous VEGF (25 ng/ml)
  increase in 3H-thymidine uptake: 257±21%
[9]; exogenous VEGF alone, no stretch
  effect on 3H-thymidine uptake: no significant effect

## angiotensin II (DRVYIHPF; Angiotensin-2; UniProt P01019 25-32, looked up) [peptide that induces KDR mRNA through the AT1 receptor]
[4]
  KDR mRNA induction: induces

## O=c1c(-c2ccc(O)cc2)coc2cc(O)cc(O)c12 [genistein]
[1]
  inhibition of stretch-induced Akt phosphorylation: 84+14%
[8]
  effect on stretch-induced ERK1/2 phosphorylation: lack of response
[2]
  inhibition of stretch-induced VEGF mRNA expression: 87±12%
  effect on basal VEGF mRNA expression: without altering

## C[C@H](CS)C(=O)N1CCC[C@H]1C(=O)O [captopril]
[5]
  effect on hypertension-induced elevation of retinal VEGF mRNA: blocked
[6]
  effect on blood pressure: normalization
[7]
  effect on hypertension-induced elevation of retinal KDR mRNA: blocked; also recorded: returned to baseline levels

## COC[C@H]1OC(=O)c2coc3c2[C@@]1(C)C1=C(C3=O)[C@@H]2CCC(=O)[C@@]2(C)C[C@H]1OC(C)=O [wortmannin]
[1]
  inhibition of stretch-induced Akt phosphorylation: 119+18%
[2]
  inhibition of stretch-induced VEGF mRNA expression: 96±25%
